Laboratory results reported in patent publication US11180470B2, “Herbicidal pyrimidine compounds” (BASF SE, priority 2016, dated 2021).

test system: ABUTH; assay: greenhouse experiment, post-emergence treatment; type: in vivo, Abutilon theophrasti; conditions: post-emergence method, application rate 2000 g/ha, scale from 0 to 100
Text: (§1) The culture containers used were plastic flowerpots containing loamy sand with approximately 3.0% of humus as the substrate. The seeds of the test plants were sown separately for each species.
(§2) For the post-emergence treatment, the test plants were first grown to a height of 3 to 15 cm, depending on the plant habit, and only then treated with the active ingredients which had been suspended or emulsified in water. For this purpose, the test plants were either sown directly and grown in the same containers, or they were first grown separately as seedlings and transplanted into the test containers a few days prior to treatment.
(§3) Depending on the species, the plants were kept at 10-25° C. or 20-35° C., respectively.
(§4) The test period extended over 2 to 4 weeks. During this time, the plants were tended, and their response to the individual treatments was evaluated.
(§5) Evaluation was carried out using a scale from 0 to 100. 100 means no emergence of the plants, or complete destruction of at least the aerial moieties, and 0 means no damage, or normal course of growth. A good herbicidal activity is given at values of at least 70 and a very good herbicidal activity is given at values of at least 85.
(§6) The plants used in the greenhouse experiments were of the following species: […]

SMILES	herbicidal activity against ABUTH
COC(=O)c1nc(C2CC2)ncc1-c1cc(C(F)(F)F)ncc1Cl [Example 63]	very good (a very good herbicidal activity is given at values of at least 85)
COC(=O)c1nc(C2CC2)ncc1-c1ncc(F)cc1F [Example 31]	good (A good herbicidal activity is given at values of at least 70)

test system: ALOMY; assay: greenhouse experiment, post-emergence treatment; type: in vivo, Alopecurus myosuroides; conditions: post-emergence method, application rate 2000 g/ha, scale from 0 to 100
Text: as §1, §2, §3, §4, §5, §6

SMILES	herbicidal activity against ALOMY
COC(=O)c1nc(C2CC2)ncc1-c1cnccc1Br [Example 34]	very good (a very good herbicidal activity is given at values of at least 85)
COC(=O)c1nc(C2CC2)ncc1-c1cc(C(F)(F)F)ncc1Cl [Example 63]	very good (a very good herbicidal activity is given at values of at least 85)
COC(=O)c1nc(C2CC2)ncc1-c1ncccc1Br [Example 28]	very good (a very good herbicidal activity is given at values of at least 85)
COC(=O)c1nc(C2CC2)ncc1-c1nc(C(F)(F)F)ccc1F [Example 61]	very good (a very good herbicidal activity is given at values of at least 85)
COC(=O)c1nc(C2CC2)ncc1-c1ncc(F)cc1Cl [Example 41]	very good (a very good herbicidal activity is given at values of at least 85)

test system: AMARE; assay: greenhouse experiment, post-emergence treatment; type: in vivo, Amaranthus retroflexus; conditions: post-emergence method, application rate 2000 g/ha, scale from 0 to 100
Text: as §1, §2, §3, §4, §5, §6

SMILES	herbicidal activity against AMARE
COC(=O)c1nc(C2CC2)ncc1-c1ccncc1F [Example 33]	very good (a very good herbicidal activity is given at values of at least 85)
COC(=O)c1nc(C2CC2)ncc1-c1ncccc1F [Example 19]	very good (a very good herbicidal activity is given at values of at least 85)

test system: AVEFA; assay: greenhouse experiment, post-emergence treatment; type: in vivo, Avena fatua; conditions: post-emergence method, application rate 2000 g/ha, scale from 0 to 100
Text: as §1, §2, §3, §4, §5, §6

SMILES	herbicidal activity against AVEFA
COC(=O)c1nc(C2CC2)ncc1-c1ccncc1F [Example 33]	very good (a very good herbicidal activity is given at values of at least 85)
COC(=O)c1nc(C2CC2)ncc1-c1nc(C(F)(F)F)ccc1F [Example 61]	very good (a very good herbicidal activity is given at values of at least 85)
COC(=O)c1nc(C2CC2)ncc1-c1ncc(F)cc1Cl [Example 41]	very good (a very good herbicidal activity is given at values of at least 85)

test system: ECHCG; assay: greenhouse experiment, post-emergence treatment; type: in vivo, Echinocloa crus-galli; conditions: post-emergence method, application rate 2000 g/ha, scale from 0 to 100
Experimental: The seeds of the test plants were sown separately for each species. […] For this purpose, the test plants were either sown directly and grown in the same containers, or they were first grown separately as seedlings and transplanted into the test containers a few days prior to treatment. Depending on the species, the plants were kept at 10-25° C. or 20-35° C., respectively. The test period extended over 2 to 4 weeks. During this time, the plants were tended, and their response to the individual treatments was evaluated. Evaluation was carried out using a scale from 0 to 100. 100 means no emergence of the plants, or complete destruction of at least the aerial moieties, and 0 means no damage, or normal course of growth. A good herbicidal activity is given at values of at least 70 and a very good herbicidal activity is given at values of at least 85. The plants used in the greenhouse experiments were of the following species: [table]

SMILES	herbicidal activity against ECHCG
COC(=O)c1nc(C2CC2)ncc1-c1cnccc1Br [Example 34]	very good (a very good herbicidal activity is given at values of at least 85)
COC(=O)c1nc(C2CC2)ncc1-c1ncccc1F [Example 19]	very good (a very good herbicidal activity is given at values of at least 85)

test system: SETVI; assay: greenhouse experiment, post-emergence treatment; type: in vivo, Setaria viridis; conditions: post-emergence method, application rate 2000 g/ha, scale from 0 to 100
Text: as §1, §2, §3, §4, §5, §6

SMILES	herbicidal activity against SETVI
COC(=O)c1nc(C2CC2)ncc1-c1cnccc1Br [Example 34]	very good (a very good herbicidal activity is given at values of at least 85)
COC(=O)c1nc(C2CC2)ncc1-c1cc(C(F)(F)F)ncc1Cl [Example 63]	very good (a very good herbicidal activity is given at values of at least 85)
COC(=O)c1nc(C2CC2)ncc1-c1ccncc1F [Example 33]	very good (a very good herbicidal activity is given at values of at least 85)
COC(=O)c1nc(C2CC2)ncc1-c1ncc(F)cc1F [Example 31]	very good (a very good herbicidal activity is given at values of at least 85)
COC(=O)c1nc(C2CC2)ncc1-c1ncccc1Br [Example 28]	good (A good herbicidal activity is given at values of at least 70)
COC(=O)c1nc(C2CC2)ncc1-c1nc(C(F)(F)F)ccc1F [Example 61]	very good (a very good herbicidal activity is given at values of at least 85)
COC(=O)c1nc(C2CC2)ncc1-c1ncccc1F [Example 19]	very good (a very good herbicidal activity is given at values of at least 85)
COC(=O)c1nc(C2CC2)ncc1-c1ncc(F)cc1Cl [Example 41]	very good (a very good herbicidal activity is given at values of at least 85)

test system: APESV; assay: greenhouse experiment, pre-emergence treatment; type: in vivo, Apera spica-venti; conditions: pre-emergence method, application rate 2000 g/ha, scale from 0 to 100
Text: (§7) The seeds of the test plants were sown separately for each species. For the pre-emergence treatment, the active ingredients, which had been suspended or emulsified in water, were applied directly after sowing by means of finely distributing nozzles. The containers were irrigated gently to promote germination and growth and subsequently covered with transparent plastic hoods until the plants had rooted. This cover caused uniform germination of the test plants, unless this had been impaired by the active ingredients. Depending on the species, the plants were kept at 10-25° C. or 20-35° C., respectively. The test period extended over 2 to 4 weeks. During this time, the plants were tended, and their response to the individual treatments was evaluated. Evaluation was carried out using a scale from 0 to 100. 100 means no emergence of the plants, or complete destruction of at least the aerial moieties, and 0 means no damage, or normal course of growth. A good herbicidal activity is given at values of at least 70 and a very good herbicidal activity is given at values of at least 85. The plants used in the greenhouse experiments were of the following species: [table]

SMILES	herbicidal activity against APESV
COC(=O)c1nc(C2CC2)ncc1-c1cc(C(F)(F)F)ncc1Cl [Example 63]	very good (a very good herbicidal activity is given at values of at least 85)
COC(=O)c1nc(C2CC2)ncc1-c1ccncc1F [Example 33]	good (A good herbicidal activity is given at values of at least 70)
COC(=O)c1nc(C2CC2)ncc1-c1ncc(F)cc1F [Example 31]	very good (a very good herbicidal activity is given at values of at least 85)
COC(=O)c1nc(C2CC2)ncc1-c1ncccc1Br [Example 28]	very good (a very good herbicidal activity is given at values of at least 85)
COC(=O)c1nc(C2CC2)ncc1-c1nc(C(F)(F)F)ccc1F [Example 61]	good (A good herbicidal activity is given at values of at least 70)
COC(=O)c1nc(C2CC2)ncc1-c1ncc(F)cc1Cl [Example 41]	very good (a very good herbicidal activity is given at values of at least 85)

test system: ECHCG; assay: greenhouse experiment, pre-emergence treatment; type: in vivo, Echinocloa crus-galli; conditions: pre-emergence method, application rate 2000 g/ha, scale from 0 to 100
Text: as §7

SMILES	herbicidal activity against ECHCG
COC(=O)c1nc(C2CC2)ncc1-c1cc(C(F)(F)F)ncc1Cl [Example 63]	very good (a very good herbicidal activity is given at values of at least 85)
COC(=O)c1nc(C2CC2)ncc1-c1ncccc1Br [Example 28]	very good (a very good herbicidal activity is given at values of at least 85)
COC(=O)c1nc(C2CC2)ncc1-c1nc(C(F)(F)F)ccc1F [Example 61]	very good (a very good herbicidal activity is given at values of at least 85)
COC(=O)c1nc(C2CC2)ncc1-c1ncc(F)cc1Cl [Example 41]	very good (a very good herbicidal activity is given at values of at least 85)
